US12391670B2, “Functionalized aminotriazines” (LEADXPRO AG, priority 2018, dated 2025)
Where two headings read alike, the source gives them in different places.

Key:
human A2B receptor [1] = target: T1, human A2B receptor (Homo sapiens (Human), UniProt P29275); assay: Radioligand binding competition assay, [3H]-DPCPX, membranes from HEK293 cells transfected with human A2B receptor
Procedure: (§1) For all four adenosine receptors (A1, A2A, A2B and A3) filtration binding assay was performed. Radioligand binding competition assay was done in duplicates in the wells of a 96-well plate (Master Block, Greiner, 786201) containing binding buffer, receptor membrane extracts, a fixed concentration of tracer and test compound at increasing concentrations. In order to eliminate effect of buffer components, binding buffer was the same for all four receptors and contained: 50 mM Tris-HCl pH 7.4, 5 mM MgCl2, 1 mM EDTA, 150 mM NaCl, 0.1% Na-azide, and 5 U/ml adenosine-deaminase. Nonspecific binding was determined by co-incubation with 200-fold excess of cold competitor. In all radioligand binding experiments, the samples were incubated in a final volume of 0.1 ml for 60 minutes at 25° C. and then filtered over Unifilter plates (Perkin Elmer) pre-treated for 2 hours to limit tracer non-specific binding. Filters were washed five times with 0.5 ml of ice-cold washing buffer (50 mM Tris-HCl pH 7.4, 5 mM MgCl2, 1 mM EDTA) and 50 μl of Microscint 20 (Perkin Elmer) were added to each filter. The plates are incubated 15 min at room temperature on an orbital shaker and then counted with a TopCount™ for 1 min/well.
For A2B, the assay was carried with [^3H]-DPCPX and membranes prepared from HEK293 cells transfected with human A2B receptor (Euroscreen FAST-003B).

human A2A receptor = human A2A receptor (Homo sapiens (Human), UniProt P29274); assay: Radioligand binding competition assay, [3H]-NECA, membranes from HEK293 cells transfected with human A2A receptor; conditions: radioligand binding
Chain of human A2A receptor (P29274 whole entry): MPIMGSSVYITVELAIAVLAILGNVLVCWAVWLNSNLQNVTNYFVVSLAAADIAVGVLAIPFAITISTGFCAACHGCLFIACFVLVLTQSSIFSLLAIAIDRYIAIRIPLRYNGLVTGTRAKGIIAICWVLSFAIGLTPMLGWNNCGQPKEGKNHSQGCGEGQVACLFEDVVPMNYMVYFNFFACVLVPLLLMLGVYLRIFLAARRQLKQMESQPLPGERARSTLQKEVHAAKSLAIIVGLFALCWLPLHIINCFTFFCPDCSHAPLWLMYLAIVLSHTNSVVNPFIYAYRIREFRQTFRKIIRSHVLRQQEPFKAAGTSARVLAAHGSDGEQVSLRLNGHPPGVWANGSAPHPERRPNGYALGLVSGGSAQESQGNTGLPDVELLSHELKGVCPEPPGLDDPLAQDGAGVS
Procedure: as §1
For A2A receptor the assay was performed with [^3H]-NECA and membranes from HEK293 cells transfected with human A2A receptor (Euroscreen FAST-002B).

[2] = target: A2B receptors endogenously expressed in HEK293 cells (Homo sapiens (Human), UniProt P29275); assay: cAMP assay (a), HEK293 cells with A2B receptors endogenously expressed; format: cell-based; conditions: stimulated with 5 μM NECA
Chain of A2B receptors endogenously expressed in HEK293 cells (P29275 whole entry): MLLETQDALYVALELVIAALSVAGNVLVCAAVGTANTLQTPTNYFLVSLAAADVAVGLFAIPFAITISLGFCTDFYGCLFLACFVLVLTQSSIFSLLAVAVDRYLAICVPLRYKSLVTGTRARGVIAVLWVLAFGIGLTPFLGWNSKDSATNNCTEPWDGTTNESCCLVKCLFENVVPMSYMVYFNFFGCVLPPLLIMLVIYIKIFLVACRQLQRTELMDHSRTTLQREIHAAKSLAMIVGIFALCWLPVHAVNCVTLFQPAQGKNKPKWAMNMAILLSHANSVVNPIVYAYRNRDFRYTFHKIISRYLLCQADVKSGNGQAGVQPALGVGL
Procedure: (§2) Two assays have been employed, one using HEK293 with A2B receptors endogenously expressed (named cAMP assay (a) in the following) and a second one using HEK293 cells impressing recombinant human A2B receptors (named cAMP assay (b) in the following)
Real-time cAMP-assays in live cells were performed in HEK293 cells stably expressing the EPAC-sensor (I. Vedel, et al., 2015, J. Biomol. Screen. 20, 849-857).
In order to test for cAMP inhibition by preferred compounds of formula I and antagonists, respectively, from this invention, endogenous A2A and A2B expression in above cell lines was exploited. To run the assay, cells were incubated in 80 μl assay buffer for 15 minutes at room temperature. The assay buffer was composed of Hanks Balanced Salt Solution (Gibco) with 20 mM HEPES, pH 7.4 and […] adenosine-deaminase. All cAMP assays were run at room temperature using a PHERAstar FSX plate reader. The FRET donor (mCerulean) was excited at 430 nm. Fluorescence emission was measured at 480 nm and 530 nm for 65 minutes (cycle time 1.45 min). Prior to stimulation fluorescence was measured for 10 min (baseline). Subsequently cells were stimulated with 5 μM NECA (5′-(N-Ethylcarboxamido)adenosine; Tocris, Cat.-No:35920-39-9). Sharply 10.15 min after stimulation the compounds were added at increasing concentrations (between 0 and 200 μM) and fluorescence was recorded for 40 min. Each compound concentration was measured in duplicates.

human A2B receptor [3] = target: T1, human A2B receptor; assay: cAMP assay (b), HEK293 cells expressing recombinant human A2B receptor; format: cell-based; conditions: reference agonist at EC80, read-out: cAMP pIC50 (converted)
Procedure: as §2
Dose response curves were performed in parallel with the reference compounds. 12 μl of cells were mixed with 6 μl of the test compound at increasing concentrations and then incubated 10 min. Thereafter 6 μl of the reference agonist was added at a final concentration corresponding to the historical EC80. The plates were then incubated for 30 min at room temperature. After addition of the lysis buffer and 1 hour incubation, cAMP concentrations were estimated, according to the manufacturer specification, with the HTRF kit.

human A1 receptor = human A1 receptor (Homo sapiens (Human), UniProt P30542); assay: Radioligand binding competition assay, [3H]-DPCPX, membranes from CHO-K1 cells transfected with human A1 receptor
Chain of human A1 receptor (P30542 whole entry): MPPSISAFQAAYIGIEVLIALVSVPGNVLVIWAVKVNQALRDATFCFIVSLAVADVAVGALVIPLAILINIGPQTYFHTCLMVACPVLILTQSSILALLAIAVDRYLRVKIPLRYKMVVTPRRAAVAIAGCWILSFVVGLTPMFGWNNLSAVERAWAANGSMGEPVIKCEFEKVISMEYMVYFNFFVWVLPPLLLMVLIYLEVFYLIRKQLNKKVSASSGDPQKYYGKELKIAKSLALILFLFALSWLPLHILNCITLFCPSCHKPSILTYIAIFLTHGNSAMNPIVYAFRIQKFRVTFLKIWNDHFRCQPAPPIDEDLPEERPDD
Procedure: as §1
For A1 receptor the assay was performed with [^3H]-DPCPX and membranes from CHO-K1 cells transfected with human A1 receptor (Euroscreen FAST-00B).

human A3 receptor = human A3 receptor (Homo sapiens (Human), UniProt P0DMS8); assay: Radioligand binding competition assay, [125I]-MECA, membranes from CHO-K1 cells transfected with human A3 receptor
Chain of human A3 receptor (P0DMS8 whole entry): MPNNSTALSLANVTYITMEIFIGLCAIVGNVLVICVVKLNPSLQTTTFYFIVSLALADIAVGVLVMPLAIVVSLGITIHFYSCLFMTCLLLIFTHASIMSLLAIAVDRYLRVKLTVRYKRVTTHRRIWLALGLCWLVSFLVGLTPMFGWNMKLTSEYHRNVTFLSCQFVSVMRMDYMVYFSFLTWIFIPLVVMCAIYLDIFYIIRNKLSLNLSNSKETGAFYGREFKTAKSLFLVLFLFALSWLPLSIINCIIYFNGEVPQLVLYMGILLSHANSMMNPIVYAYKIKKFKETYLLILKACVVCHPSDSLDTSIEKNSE
Procedure: as §1
For A3, the assay was carried out with [^125I]-MECA and membranes from CHO-K1 cells transfected with human A3 receptor (Euroscreen FAST-004B).

[4] = read-out: cAMP pIC50 (converted)

T1 sequence (P29275 whole entry): as the sequence (P29275 whole entry) above

| SMILES | Human A2B Receptor pKi (human A2B receptor [1]) | IC50 (human A2B receptor [1]) | Human A2A Receptor pKi (human A2A receptor) | IC50 (human A2B receptor [3]) | further results |
| --- | --- | --- | --- | --- | --- |
| Fc1cnccc1-c1nnc(Nc2nccs2)nc1-c1cccnc1 [Example 3, N-(6-(3-fluoropyridin-4-yl)-5-(pyridin-3-yl)-1,2,4-triazin-3-yl)thiazol-2-amine] | 5.95 | 1.25 µM | <4.70 | – | IC50 [2]: 2 µM; IC50 [2, 4]: 2 µM |
| Cc1nsc(Nc2nnc(-c3ccncc3F)c(-c3cccnc3)n2)n1 [Example 5, N-(6-(3-fluoropyridin-4-yl)-5-(pyridin-3-yl)-1,2,4-triazin-3-yl)-3-methyl-1,2,4-thiadiazol-5-amine] | 5.38 | 4.66 µM | <4.70 | – | – |
| Cc1nnc(Nc2nnc(-c3ccncc3F)c(-c3cccnc3)n2)s1 [Example 6, N-(6-(3-fluoropyridin-4-yl)-5-(pyridin-3-yl)-1,2,4-triazin-3-yl)-5-methyl-1,3,4-thiadiazol-2-amine] | 5.37 | 4.77 µM | <4.70 | – | IC50 [2]: 3.98 µM; IC50 [2, 4]: 3.98 µM |
| CNC(=O)Nc1nnc(-c2ccncc2F)c(-c2cccnc2)n1 [Example 7, 1-(6-(3-fluoropyridin-4-yl)-5-(pyridin-3-yl)-1,2,4-triazin-3-yl)-3-methylurea] | 5.25 | 6.32 µM | <4.70 | – | IC50 [2]: 6.92 µM; IC50 [2, 4]: 6.92 µM |
| Fc1ccccc1-c1nc(Nc2nc(Cl)cs2)nnc1-c1ccnc(C(F)(F)F)c1 [Example 10, 4-chloro-N-(5-(2-fluorophenyl)-6-(2-(trifluoromethyl)pyridin-4-yl)-1,2,4-triazin-3-yl)thiazol-2-amine] | 6.02 | 1.07 µM | <4.70 | – | – |
| Cc1nsc(Nc2nnc(-c3ccncc3F)c(-c3ccccc3F)n2)n1 [Example 13, N-(5-(2-fluorophenyl)-6-(3-fluoropyridin-4-yl)-1,2,4-triazin-3-yl)-3-methyl-1,2,4-thiadiazol-5-amine] | 5.98 | 1.17 µM | <4.70 | – | – |
| Cc1cnc(-c2nc(Nc3cccc(F)c3)nnc2-c2ccncc2F)o1 [Example 17, N-(3-fluorophenyl)-6-(3-fluoropyridin-4-yl)-5-(5-methyloxazol-2-yl)-1,2,4-triazin-3-amine] | 7.17 | – | 5.8 | 0.324 µM | – |
| CCc1n[nH]c(Nc2nnc(-c3ccncc3F)c(-c3ccccc3F)n2)n1 [Example 18, N-(3-ethyl-1H-1,2,4-triazol-5-yl)-5-(2-fluorophenyl)-6-(3-fluoro-4-pyridyl)-1,2,4-triazin-3-amine] | 6.68 | – | – | – | Human A1 Receptor pKi (human A1 receptor): 5.00 |
| COc1ccc(NC(=O)Nc2nnc(-c3ccncc3F)c(-c3ccccc3F)n2)cc1 [Example 29, 1-[5-(2-fluorophenyl)-6-(3-fluoro-4-pyridyl)-1,2,4-triazin-3-yl]-3-(4-methoxyphenyl)urea] | 6.94 | – | – | – | – |
| Fc1cnccc1-c1nnc(Nc2nc(C3CC3)n[nH]2)nc1-c1ccccc1F [Example 31, N-(3-cyclopropyl-1H-1,2,4-triazol-5-yl)-5-(2-fluorophenyl)-6-(3-fluoro-4-pyridyl)-1,2,4-triazin-3-amine] | 7.27 | – | – | 0.275 µM | Human A1 Receptor pKi (human A1 receptor): 5.00 |
| O=C(Nc1nnc(-c2ccncc2F)c(-c2ccccc2F)n1)NC1CC1 [Example 35, 1-cyclopropyl-3-[5-(2-fluorophenyl)-6-(3-fluoro-4-pyridyl)-1,2,4-triazin-3-yl]urea] | 6.55 | – | – | – | – |
| Fc1cnccc1-c1nnc(Nc2ccc(OCC(F)F)nc2)nc1-c1ccccc1F [Example 36, N-[6-(2,2-difluoroethoxy)pyridin-3-yl]-5-(2-fluorophenyl)-6-(3-fluoropyridin-4-yl)-1,2,4-triazin-3-amine] | 7.42 | – | 6.56 | – | – |
| CC(C)(O)c1ccc(Nc2nnc(-c3ccncc3F)c(-c3ccccc3F)n2)cn1 [Example 38, 2-(5-{[5-(2-fluorophenyl)-6-(3-fluoropyridin-4-yl)-1,2,4-triazin-3-yl]amino}pyridin-2-yl)propan-2-ol] | 7.65 | – | 5.84 | 0.0501 µM | Human A3 Receptor pKi (human A3 receptor): 6.42; Human A1 Receptor pKi (human A1 receptor): 6.26 |
| Fc1cnccc1-c1nnc(Nc2ccc(C3CC3)nc2)nc1-c1ccccc1F [Example 44, N-(6-cyclopropylpyridin-3-yl)-5-(2-fluorophenyl)-6-(3-fluoropyridin-4-yl)-1,2,4-triazin-3-amine] | 7.58 | – | 6.00 | – | – |
| CC(C)(C)c1n[nH]c(Nc2nnc(-c3ccncc3F)c(-c3ccccc3F)n2)n1 [Example 46, N-(3-tert-butyl-1H-1,2,4-triazol-5-yl)-5-(2-fluorophenyl)-6-(3-fluoropyridin-4-yl)-1,2,4-triazin-3-amine] | 7.01 | – | – | – | – |

Continued, in another order:

| Human A2B Receptor pKi (human A2B receptor [1]) | IC50 (human A2B receptor [1]) | Human A2A Receptor pKi (human A2A receptor) | IC50 (human A2B receptor [3]) | SMILES | further results |
| --- | --- | --- | --- | --- | --- |
| 6.42 | 0.42 µM | 4.49 | – | Fc1cccc(Nc2nnc(-c3ccncc3F)c(-c3ccccc3F)n2)c1 [Example 12, 5-(2-fluorophenyl)-N-(3-fluorophenyl)-6-(3-fluoropyridin-4-yl)-1,2,4-triazin-3-amine] | IC50 (human A2A receptor): 32.6 µM |
| 7.81 | – | 6 | 0.0661 µM | Cc1ccc(Nc2nnc(-c3ccncc3F)c(-c3ccccc3F)n2)cn1 [Example 21, 5-(2-fluorophenyl)-6-(3-fluoro-4-pyridyl)-N-(6-methyl-3-pyridyl)-1,2,4-triazin-3-amine] | – |
| 7.95 | – | 4.7 | 0.0295 µM | OCc1ccc(Nc2nnc(-c3ccncc3F)c(-c3ccccc3F)n2)cn1 [Example 22, [5-[[5-(2-fluorophenyl)-6-(3-fluoro-4-pyridyl)-1,2,4-triazin-3-yl]amino]-2-pyridyl]methanol] | – |
| 7.43 | – | 6.57 | 0.105 µM | COc1ccc(Nc2nnc(-c3ccncc3F)c(-c3ccccc3F)n2)cn1 [Example 23, 5-(2-fluorophenyl)-6-(3-fluoro-4-pyridyl)-N-(6-methoxy-3-pyridyl)-1,2,4-triazin-3-amine] | – |
| 7.33 | – | – | 0.107 µM | Fc1cnccc1-c1nnc(Nc2ccc(C(F)(F)F)nc2)nc1-c1ccccc1F [Example 24, 5-(2-fluorophenyl)-6-(3-fluoro-4-pyridyl)-N-[6-(trifluoromethyl)-3-pyridyl]-1,2,4-triazin-3-amine] | Human A1 Receptor pKi (human A1 receptor): 5.58 |
| 7.84 | – | 6.1 | – | OCc1ccc(Nc2nnc(-c3ccncc3F)c(-c3ccccc3F)n2)cc1F [Example 37, (2-fluoro-4-{[5-(2-fluorophenyl)-6-(3-fluoropyridin-4-yl)-1,2,4-triazin-3-yl]amino}phenyl)methanol] | – |
| 7.89 | – | 6.25 | – | CC(O)c1ccc(Nc2nnc(-c3ccncc3F)c(-c3ccccc3F)n2)cn1 (stereo not shown) [Example 40, 1-(5-{[5-(2-fluorophenyl)-6-(3-fluoropyridin-4-yl)-1,2,4-triazin-3-yl]amino}pyridin-2-yl)ethan-1-ol] | – |
